# Reference: the Kinase Knowledgebase extract (Sharma et al. 2016)
# Molecular target: PIK3CA (human) (UniProt P42336)
# Experiment: Assessment of PIK3CA Kinase Activity
# Chain of PIK3CA (human) (P42336 whole entry, looked up): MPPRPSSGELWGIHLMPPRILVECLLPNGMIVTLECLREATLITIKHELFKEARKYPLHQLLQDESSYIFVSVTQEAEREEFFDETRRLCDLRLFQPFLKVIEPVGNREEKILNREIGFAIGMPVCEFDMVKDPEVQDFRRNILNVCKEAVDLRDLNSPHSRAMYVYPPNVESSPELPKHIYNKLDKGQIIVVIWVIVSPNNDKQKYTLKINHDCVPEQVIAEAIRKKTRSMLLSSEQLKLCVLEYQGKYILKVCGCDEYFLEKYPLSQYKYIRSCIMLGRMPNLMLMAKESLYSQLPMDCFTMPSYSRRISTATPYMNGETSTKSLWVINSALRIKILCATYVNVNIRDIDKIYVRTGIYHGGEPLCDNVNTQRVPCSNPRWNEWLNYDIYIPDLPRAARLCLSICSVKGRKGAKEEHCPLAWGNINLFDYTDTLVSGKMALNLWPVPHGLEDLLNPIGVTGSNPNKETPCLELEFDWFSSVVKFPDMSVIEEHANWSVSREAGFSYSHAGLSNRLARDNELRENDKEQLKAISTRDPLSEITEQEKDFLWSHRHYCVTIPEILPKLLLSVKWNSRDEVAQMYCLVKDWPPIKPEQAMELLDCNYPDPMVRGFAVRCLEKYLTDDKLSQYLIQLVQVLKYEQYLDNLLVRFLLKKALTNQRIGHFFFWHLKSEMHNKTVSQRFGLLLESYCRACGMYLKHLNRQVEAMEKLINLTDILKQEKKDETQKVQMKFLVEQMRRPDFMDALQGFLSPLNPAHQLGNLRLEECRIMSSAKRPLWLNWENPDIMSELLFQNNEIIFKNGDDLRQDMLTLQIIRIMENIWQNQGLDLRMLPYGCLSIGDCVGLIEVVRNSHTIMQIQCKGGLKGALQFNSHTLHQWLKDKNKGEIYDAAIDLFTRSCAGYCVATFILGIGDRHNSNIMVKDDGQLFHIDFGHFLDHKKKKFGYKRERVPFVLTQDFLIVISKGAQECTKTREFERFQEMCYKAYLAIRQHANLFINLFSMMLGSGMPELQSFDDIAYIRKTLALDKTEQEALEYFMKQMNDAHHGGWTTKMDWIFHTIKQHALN
row,SMILES,IC50 [nM]
1,CN(Cc1cc2nc(-c3ccc4c(c3)CCN4)nc(N3CCOCC3)c2s1)c1ncc(C(=O)NO)cn1,> 10000
2,CS(=O)(=O)N1CCN(Cc2cc3nc(-c4cccc5nn(CCCCCC(=O)NO)cc45)nc(N4CCOCC4)c3s2)CC1,> 10000
3,CC(=O)NCc1ccc(-c2nc(N3CCOCC3)c3sc(CN(C)c4ncc(C(=O)NO)cn4)cc3n2)cc1,> 10000
4,CN(C)CCOc1ccc(-c2nc(N3CCOCC3)c3sc(CN(C)c4ncc(C(=O)NO)cn4)cc3n2)cn1,> 10000
5,CN(Cc1cc2nc(-c3ccc(OCCN)nc3)nc(N3CCOCC3)c2s1)c1ncc(C(=O)NO)cn1,> 10000
6,CC(C)OC(=O)Nc1ccc(-c2nc(N3CCOCC3)c3sc(CN(C)c4ncc(C(=O)NO)cn4)cc3n2)cc1,> 10000
7,CCNc1ccc(-c2nc(N3CCOCC3)c3sc(CN(C)c4ncc(C(=O)NO)cn4)cc3n2)cc1,> 10000
8,CS(=O)(=O)N1CCN(Cc2cc3nc(-c4cccc5[nH]ncc45)nc(NCCCCCCC(=O)NO)c3s2)CC1,> 10000
9,CN(Cc1cc2nc(-c3ccccc3)nc(N3CCOCC3)c2s1)c1ncc(C(=O)NO)cn1,> 10000
10,CN(Cc1cc2nc(-c3ccc4c(c3)CC(=O)N4)nc(N3CCOCC3)c2s1)c1ncc(C(=O)NO)cn1,> 10000
11,CN(Cc1cc2nc(-c3cccc4c3CCN4)nc(N3CCOCC3)c2s1)c1ncc(C(=O)NO)cn1,> 10000
12,COc1ccc(Nc2nc(-c3cccc4[nH]ncc34)nc3cc(CN(C)c4ncc(C(=O)NO)cn4)sc23)cc1,> 10000
13,CN(Cc1cc2nc(-c3ccc4c(c3)NC(=O)CO4)nc(N3CCOCC3)c2s1)c1ncc(C(=O)NO)cn1,> 10000
14,CN(Cc1cc2nc(-c3cccc4[nH]ncc34)nc(N3CCNCC3)c2s1)c1ncc(C(=O)NO)cn1,> 10000
15,CS(=O)(=O)N1CCN(Cc2cc3nc(-c4cccc5[nH]ncc45)nc(N4CCN(CCCCC(=O)NO)CC4)c3s2)CC1,> 10000
16,CN(Cc1cc2nc(-c3ccc(F)cc3)nc(N3CCOCC3)c2s1)c1ncc(C(=O)NO)cn1,> 10000
17,CS(=O)(=O)N1CCN(Cc2cc3nc(-c4cccc5[nH]ncc45)nc(N4CCN(CCCCCCC(=O)NO)CC4)c3s2)CC1,> 10000

row,SMILES,IC50 [nM]
1,CS(=O)(=O)N1CCN(Cc2cc3nc(-c4cccc5c4cnn5CCCCC(=O)NO)nc(N4CCOCC4)c3s2)CC1,> 10000
2,CC(C)c1ccc(-c2nc(N3CCOCC3)c3sc(CN(C)c4ncc(C(=O)NO)cn4)cc3n2)cc1,> 10000
3,CS(=O)(=O)N1CCN(Cc2cc3nc(-c4cccc5nn(CCCCCCC(=O)NO)cc45)nc(N4CCOCC4)c3s2)CC1,> 10000
4,CN(Cc1cc2nc(-c3ccc(S(C)(=O)=O)cc3)nc(N3CCOCC3)c2s1)c1ncc(C(=O)NO)cn1,> 10000
5,CNCCOc1ccc(-c2nc(N3CCOCC3)c3sc(CN(C)c4ncc(C(=O)NO)cn4)cc3n2)cn1,> 10000
6,CN(C)c1ccc(-c2nc(N3CCOCC3)c3sc(CN(C)c4ncc(C(=O)NO)cn4)cc3n2)cc1,> 10000
7,CN(Cc1cc2nc(-c3ccc(OCc4ccccc4)nc3)nc(N3CCOCC3)c2s1)c1ncc(C(=O)NO)cn1,> 10000
8,CS(=O)(=O)N1CCN(Cc2cc3nc(-c4cccc5[nH]ncc45)nc(NCCCCCC(=O)NO)c3s2)CC1,> 10000
9,CN(Cc1cc2nc(-c3ccc4[nH]c(=O)[nH]c4c3)nc(N3CCOCC3)c2s1)c1ncc(C(=O)NO)cn1,> 10000
10,O=C(NO)c1ccc2c(ccn2Cc2cc3nc(-c4cccc5[nH]ncc45)nc(N4CCOCC4)c3s2)c1,> 10000
11,CS(=O)(=O)N1CCN(Cc2cc3nc(-c4cccc5c4cnn5CCCCCC(=O)NO)nc(N4CCOCC4)c3s2)CC1,> 10000
12,CS(=O)(=O)N1CCN(Cc2cc3nc(-c4cccc5[nH]ncc45)nc(NCCCCC(=O)NO)c3s2)CC1,> 10000
13,COc1ccc(-c2nc(N3CCOCC3)c3sc(CN(C)c4ncc(C(=O)NO)cn4)cc3n2)cc1,> 10000
14,CN(Cc1cc2nc(-c3cccc(NS(C)(=O)=O)c3)nc(N3CCOCC3)c2s1)c1ncc(C(=O)NO)cn1,> 10000
15,CNc1ccc(-c2nc(N3CCOCC3)c3sc(CN(C)c4ncc(C(=O)NO)cn4)cc3n2)cc1,> 10000
16,CNc1ccc(-c2nc(N3CCOCC3)c3sc(C(C)(C)N(C)c4ncc(C(=O)NO)cn4)cc3n2)cn1,100 to 1000
17,COc1ccc(-c2nc(N3CCOCC3)c3sc(NS(=O)(=O)c4ccc(C=CC(=O)NO)cc4)cc3n2)cn1,100 to 1000

# The remaining lines, values ahead:
row,IC50 [nM],SMILES
1,< 100,Nc1ccc(-c2nc(N3CCOCC3)c3sc(CN(CCO)c4ncc(C(=O)NO)cn4)cc3n2)cc1
2,< 100,CN(Cc1cc2nc(-c3cc(O)ccc3F)nc(N3CCOCC3)c2s1)c1ncc(C(=O)NO)cn1
3,100 to 1000,CN(Cc1cc2nc(-c3cccc(CCO)c3)nc(N3CCOCC3)c2s1)c1ncc(C(=O)NO)cn1
4,< 100,COc1ncc(-c2nc(N3CCOCC3)c3sc(CN(C)c4ncc(C(=O)NO)cn4)cc3n2)cn1
5,100 to 1000,CCCc1nc2cc(C=CC(=O)NO)ccc2n1CCN(C)Cc1cc2nc(-c3ccc(N)cc3)nc(N3CCOCC3)c2s1
6,100 to 1000,CS(=O)(=O)N1CCN(Cc2cc3nc(-c4ccc(OCCCCC(=O)NO)cc4)nc(N4CCOCC4)c3s2)CC1
7,100 to 1000,C[C@H](O)c1cccc(-c2nc(N3CCOCC3)c3sc(CN(C)c4ncc(C(=O)NO)cn4)cc3n2)c1
8,< 100,CN(c1ncc(C(=O)NO)cn1)c1cc2nc(-c3ccc(N)cc3)nc(N3CCOCC3)c2s1
9,< 100,Nc1ncc(-c2nc(N3CCOCC3)c3sc(NS(=O)(=O)c4ccc(/C=C/C(=O)NO)cc4)cc3n2)cn1
10,100 to 1000,CN(Cc1cc2nc(-c3ccc(N)c(C#N)c3)nc(N3CCOCC3)c2s1)c1ncc(C(=O)NO)cn1
11,100 to 1000,Cc1ncc(-c2nc(N3CCOCC3)c3sc(CN(CCO)c4ncc(C(=O)NO)cn4)cc3n2)s1
12,100 to 1000,CC(=NO)c1cccc(-c2nc(N3CCOCC3)c3sc(CN(C)c4ncc(C(=O)NO)cn4)cc3n2)c1
13,< 100,O=C(C=Cc1cccc(S(=O)(=O)Nc2cc3nc(-c4cccc5[nH]ncc45)nc(N4CCOCC4)c3s2)c1)NO
14,< 100,Nc1ncc(-c2nc(N3CCOCC3)c3sc(NCCCC(=O)NO)cc3n2)cn1
15,< 100,COc1ccc(-c2nc(N3CCOCC3)c3sc(NS(=O)(=O)c4cccc(/C=C/C(=O)NO)c4)cc3n2)cn1
16,100 to 1000,CS(=O)(=O)N1CCN(Cc2cc3nc(-c4ccc(OCCCCCCC(=O)NO)cc4)nc(N4CCOCC4)c3s2)CC1
17,100 to 1000,Cn1c(CNCc2cc3nc(-c4ccc(N)cc4)nc(N4CCOCC4)c3s2)nc2cc(C=CC(=O)NO)ccc21
18,100 to 1000,CN(Cc1cc2nc(-c3cccc(C(=O)O)c3)nc(N3CCOCC3)c2s1)c1ncc(C(=O)NO)cn1
19,< 100,COc1ccc(-c2nc(N3CCOCC3)c3sc(NCCCCCC(=O)NO)cc3n2)cn1
20,100 to 1000,CN(Cc1cc2nc(-c3cccc(S(N)(=O)=O)c3)nc(N3CCOCC3)c2s1)c1ncc(C(=O)NO)cn1
21,100 to 1000,CCCc1nc2cc(C=CC(=O)NO)ccc2n1CCN(C)Cc1cc2nc(-c3ccc(NC)nc3)nc(N3CCOCC3)c2s1
22,100 to 1000,Cn1cc(-c2nc(N3CCOCC3)c3sc(CN(CCO)c4ncc(C(=O)NO)cn4)cc3n2)cn1
23,< 100,Nc1ccc(-c2nc(N3CCOCC3)c3sc(CN(CCO)c4ncc(C(=O)NO)cn4)cc3n2)cc1F
24,< 100,Nc1ccc(-c2nc(N3CCOCC3)c3sc(CN(CCO)c4ncc(C(=O)NO)cn4)cc3n2)cn1
25,< 100,CNc1ccc(-c2nc(N3CCOCC3)c3sc(CN(CCO)c4ncc(C(=O)NO)cn4)cc3n2)cn1

row,IC50 [nM],SMILES
1,< 100,CCOc1ccc(-c2nc(N3CCOCC3)c3sc(CN(C)c4ncc(C(=O)NO)cn4)cc3n2)cn1
2,< 100,CN(Cc1cc2nc(-c3cccc4[nH]c(=S)[nH]c34)nc(N3CCOCC3)c2s1)c1ncc(C(=O)NO)cn1
3,< 100,COc1ccc(-c2nc(N3CCOCC3)c3sc(NCCCCC(=O)NO)cc3n2)cn1
4,100 to 1000,CN(Cc1cc2nc(-c3ccc(N)c(Cl)c3)nc(N3CCOCC3)c2s1)c1ncc(C(=O)NO)cn1
5,100 to 1000,CN(Cc1cc2nc(-c3ccc(O)nc3)nc(N3CCOCC3)c2s1)c1ncc(C(=O)NO)cn1
6,100 to 1000,Nc1ccc(-c2nc(N3CCOCC3)c3sc(S(=O)(=O)NCC4CCN(c5ncc(C(=O)NO)cn5)CC4)cc3n2)cc1
7,< 100,CN(Cc1cc2nc(-c3ccc(N)c(O)c3)nc(N3CCOCC3)c2s1)c1ncc(C(=O)NO)cn1
8,< 100,COc1ccc(-c2nc(N3CCOCC3)c3sc(C(C)(C)Nc4ncc(C(=O)NO)cn4)cc3n2)cn1
9,100 to 1000,Cc1ncc(-c2nc(N3CCOCC3)c3sc(CN(C)c4ncc(C(=O)NO)cn4)cc3n2)s1
10,< 100,CNc1ccc(-c2nc(N3CCOCC3)c3sc(NCCCCC(=O)NO)cc3n2)cn1
11,< 100,CNc1ccc(-c2nc(N3CCOCC3)c3sc(C(=O)NCC4CCN(c5ncc(C(=O)NO)cn5)CC4)cc3n2)cn1
12,< 100,CNc1ccc(-c2nc(N3CCOCC3)c3sc(C(C)(C)Nc4ncc(C(=O)NO)cn4)cc3n2)cn1
13,< 100,CC(O)c1cccc(-c2nc(N3CCOCC3)c3sc(CN(C)c4ncc(C(=O)NO)cn4)cc3n2)c1 (centres undefined)
14,100 to 1000,CN(Cc1cc2nc(-c3cnc(OCc4ccccc4)nc3)nc(N3CCOCC3)c2s1)c1ncc(C(=O)NO)cn1
15,100 to 1000,C[C@@H](O)c1cccc(-c2nc(N3CCOCC3)c3sc(CN(C)c4ncc(C(=O)NO)cn4)cc3n2)c1
16,< 100,CN(Cc1cc2nc(-c3ccc(OCCO)nc3)nc(N3CCOCC3)c2s1)c1ncc(C(=O)NO)cn1
17,100 to 1000,CN(Cc1cc2nc(-c3cccc(SCCO)c3)nc(N3CCOCC3)c2s1)c1ncc(C(=O)NO)cn1
18,< 100,Cc1ncc(-c2nc(N3CCOCC3)c3sc(NCCCCC(=O)NO)cc3n2)cn1
19,< 100,COc1ccc(-c2nc(N3CCOCC3)c3sc(Nc4ncc(C(=O)NO)cn4)cc3n2)cn1
20,< 100,CNc1ccc(-c2nc(N3CCOCC3)c3sc(N(C)c4ncc(C(=O)NO)cn4)cc3n2)cn1
21,100 to 1000,CN(Cc1cc2nc(-c3ccc(N)cc3F)nc(N3CCOCC3)c2s1)c1ncc(C(=O)NO)cn1
22,100 to 1000,CC(=O)c1cc(-c2nc(N3CCOCC3)c3sc(CN(C)c4ncc(C(=O)NO)cn4)cc3n2)ccc1N
23,< 100,CN(Cc1cc2nc(-c3ccc(N)c(CO)c3)nc(N3CCOCC3)c2s1)c1ncc(C(=O)NO)cn1
24,< 100,CNc1ccc(-c2nc(N3CCOCC3)c3sc(CNCc4nc5cc(C=CC(=O)NO)ccc5n4C)cc3n2)cn1
25,< 100,CN(Cc1cc2nc(-c3ccc([N+](=O)[O-])c(O)c3)nc(N3CCOCC3)c2s1)c1ncc(C(=O)NO)cn1
